Activity calls are given as the source filed them. The rule behind the calls is not given here.

The text below walks through data of ChEMBL document CHEMBL5506040, “Design of FK866-Based Degraders for Blocking the Nonenzymatic Functions of Nicotinamide Phosphoribosyltransferase” (J Med Chem, 2024).

One data set deals with SK-OV-3. In words: cells. The settings on record: Homo sapiens, SK-OV-3, 72 h.
Data set [1] in a line: Toxicity in immunocompetent female BALB/c mouse implanted with mouse CT26 cells assessed as body weight loss at 20 mg/kg, ip administered for 30 days. Conditions: in vivo, 720 h, time 30 day. The format is organism-based.
Data set [2] is described as follows: Induction of NAMPT degradation in immunocompetent female BALB/c mouse implanted with mouse CT26 cells assessed as reduction in intracellular NAMPT level in tumor by measuring fold change at 20 mg/kg, ip administered for 30 days by Western blot analysis (reference value: 1.00). The format is functional. The settings on record: time 30 day. A general note: In western blotting, separated proteins are transferred to a membrane and probed.

Data set [3] relates to CT26. In words: cells. The settings on record: Mus musculus, CT26, 72 h.
Description: Cytotoxicity against mouse CT26 cells assessed as inhibition of cell growth incubated for 72 hrs by MTT assay
A short description of data set [4]: Toxicity in immunocompetent BALB/c mouse implanted with mouse CT26 cells assessed as punctate necrosis in liver at 20 mg/kg, ip administered for 30 days by H and E staining based analysis. Conditions: in vivo, 720 h, time 30 day. The format is organism-based.
A short description of data set [5]: Toxicity in immunocompetent BALB/c mouse implanted with mouse CT26 cells assessed as change in spleen size at 20 mg/kg, ip administered for 30 days relative to control group. The format is organism-based. The settings on record: in vivo, 720 h, time 30 day.
Data set [6] has as its target Nicotinamide phosphoribosyltransferase (Homo sapiens) (UniProt P43490). The settings on record: SK-OV-3, dose 100.0 nM, time 24.0 hrs.
The target of data set [7] is T1, von Hippel-Lindau disease tumor suppressor/Nicotinamide phosphoribosyltransferase (Mus musculus) (UniProt Q99KQ4+P40338). In words: PROTAC activity at VHL/NAMPT in mouse CT26 cells assessed as induction of extracellular NAMPT degradation at 0.1 to 5 uM incubated for 24 hrs by Western blot analysis. The format is cell-based. The settings on record: dose 0.1-5 µM.

The test system of another data set is MIA PaCa-2. In words: cells. The settings on record: Homo sapiens, MIA PaCa-2, 72 h.
Data set [8] has as its target T2, von Hippel-Lindau disease tumor suppressor/Nicotinamide phosphoribosyltransferase (Homo sapiens, UniProt P43490+P40337). In words: PROTAC activity at VHL/NAMPT in human SK-OV-3 cells assessed as induction of intracellular NAMPT degradation incubated for 24 hrs by Western blot analysis relative to control. The class given is cell-based.
Data set [9] deals with T1, von Hippel-Lindau disease tumor suppressor/Nicotinamide phosphoribosyltransferase (Mus musculus). In words: (§1) PROTAC activity at VHL/NAMPT in mouse CT26 cells assessed as induction of intracellular NAMPT degradation incubated for 24 hrs by Western blot analysis. The class given is cell-based.
Data set [10] concerns the target von Hippel-Lindau disease tumor suppressor/Nicotinamide phosphoribosyltransferase (Mus musculus, UniProt Q99KQ4+P40338). The data set is described as §1. The class given is cell-based.
The target in data set [11] is T2, von Hippel-Lindau disease tumor suppressor/Nicotinamide phosphoribosyltransferase. In words: PROTAC activity at VHL/NAMPT in human MKN-45 cells assessed as induction of intracellular NAMPT degradation incubated for 24 hrs by Western blot analysis relative to control. The format is cell-based.
Data set [12] can be described thus: Toxicity in immunocompetent BALB/c mouse implanted with mouse CT26 cells assessed as decrease in spleen index at 20 mg/kg, ip administered for 30 days relative to FK866. The settings on record: in vivo, 720 h, time 30 day. The format is organism-based.
Data set [13] can be described thus: Apparent volume of distribution during terminal phase in male Sprague-Dawley rat at 14 mg/kg, ip measured after 24 hrs by LC/MS-MS analysis. The settings on record: in vivo, read-out: Vz/F. The format is ADME, organism-based.
Data set [14] can be described thus: AUC (0 to 24 hrs) in male Sprague-Dawley rat at 14 mg/kg, ip measured after 24 hrs by LC/MS-MS analysis. The format is ADME, organism-based. The settings on record: in vivo.
Data set [15] can be described thus: Tmax in male Sprague-Dawley rat at 14 mg/kg, ip measured after 24 hrs by LC/MS-MS analysis. The settings on record: in vivo. The class given is ADME, organism-based.
Data set [16] is described as follows: Toxicity in immunocompetent BALB/c mouse implanted with mouse CT26 cells assessed as effect on liver histopathology at 20 mg/kg, ip administered for 30 days by H and E staining based analysis. The format is organism-based. The settings on record: in vivo, 720 h, time 30 day.
Data set [17] can be described thus: Half-life in male Sprague-Dawley rat at 14 mg/kg, ip measured after 24 hrs by LC/MS-MS analysis. The format is ADME, organism-based. The settings on record: in vivo.
Data set [18] addresses T1, von Hippel-Lindau disease tumor suppressor/Nicotinamide phosphoribosyltransferase (Mus musculus). In words: PROTAC activity at VHL/NAMPT in mouse CT26 cells assessed as induction of extracellular NAMPT degradation incubated for 24 hrs by immunoblot analysis. The class given is cell-based. Conditions: dose 0.1-5 µM.
The test system of data set [19] is CT26. In words: Antitumor activity against mouse CT26 cells implanted in immunocompetent female BALB/c mouse model assessed as reduction in tumor size at 20 mg/kg, ip administered for 30 days. The format is functional, organism-based. The settings on record: time 30.0 day.
A short description of data set [20]: Cmax in male Sprague-Dawley rat at 14 mg/kg, ip measured after 24 hrs by LC/MS-MS analysis. The class given is ADME, organism-based. Conditions: in vivo.
In data set [21] the test system is CT26. In words: Antitumor activity against mouse CT26 cells implanted in immunocompetent female BALB/c mouse model assessed as reduction in tumor growth at 20 mg/kg, ip administered for 30 days. The format is functional, organism-based. The settings on record: time 30.0 day.
Data set [22] concerns the target T1, von Hippel-Lindau disease tumor suppressor/Nicotinamide phosphoribosyltransferase (Mus musculus). In words: PROTAC activity at VHL/NAMPT in mouse CT26 cells assessed as induction of intracellular NAMPT degradation incubated for 24 hrs by immunoblot analysis. The class given is cell-based. The settings on record: dose 0.1-5 µM.
Data set [23] deals with CT26. In words: Antitumor activity against mouse CT26 cells implanted in immunocompetent female BALB/c mouse model assessed as reduction in IL-6 expression at 20 mg/kg, ip administered for 30 days by ELISA. The class given is functional, organism-based. Conditions: time 30.0 day. (In general: In an ELISA, binding on a coated surface is turned into a signal by an enzyme label.)

The subject of data set [24] is CT26. In words: Antitumor activity against mouse CT26 cells implanted in immunocompetent female BALB/c mouse model assessed as reduction in TNF-alpha expression at 20 mg/kg, ip administered for 30 days by ELISA. Conditions: time 30.0 day. The class given is functional, organism-based.

T1 sequence (P40338 whole entry, looked up): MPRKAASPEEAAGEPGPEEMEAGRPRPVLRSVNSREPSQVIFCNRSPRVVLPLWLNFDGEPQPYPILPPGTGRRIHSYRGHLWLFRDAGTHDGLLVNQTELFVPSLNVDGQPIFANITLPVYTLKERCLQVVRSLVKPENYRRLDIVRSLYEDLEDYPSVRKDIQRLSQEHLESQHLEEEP
T1 sequence (Q99KQ4 whole entry, looked up): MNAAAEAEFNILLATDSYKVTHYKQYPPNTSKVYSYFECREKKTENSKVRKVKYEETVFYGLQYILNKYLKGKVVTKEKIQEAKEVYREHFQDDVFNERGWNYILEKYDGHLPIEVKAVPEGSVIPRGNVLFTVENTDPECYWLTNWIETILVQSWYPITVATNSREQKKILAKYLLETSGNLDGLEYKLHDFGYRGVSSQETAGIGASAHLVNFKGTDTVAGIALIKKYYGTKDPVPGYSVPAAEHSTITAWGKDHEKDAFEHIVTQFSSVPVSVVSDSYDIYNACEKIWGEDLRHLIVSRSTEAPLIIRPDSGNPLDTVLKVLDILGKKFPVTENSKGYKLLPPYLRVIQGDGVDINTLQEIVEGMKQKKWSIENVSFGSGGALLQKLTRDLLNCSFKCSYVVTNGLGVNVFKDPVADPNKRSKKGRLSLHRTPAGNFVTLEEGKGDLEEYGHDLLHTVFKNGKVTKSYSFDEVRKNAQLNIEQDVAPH
T2 sequence (P43490 whole entry): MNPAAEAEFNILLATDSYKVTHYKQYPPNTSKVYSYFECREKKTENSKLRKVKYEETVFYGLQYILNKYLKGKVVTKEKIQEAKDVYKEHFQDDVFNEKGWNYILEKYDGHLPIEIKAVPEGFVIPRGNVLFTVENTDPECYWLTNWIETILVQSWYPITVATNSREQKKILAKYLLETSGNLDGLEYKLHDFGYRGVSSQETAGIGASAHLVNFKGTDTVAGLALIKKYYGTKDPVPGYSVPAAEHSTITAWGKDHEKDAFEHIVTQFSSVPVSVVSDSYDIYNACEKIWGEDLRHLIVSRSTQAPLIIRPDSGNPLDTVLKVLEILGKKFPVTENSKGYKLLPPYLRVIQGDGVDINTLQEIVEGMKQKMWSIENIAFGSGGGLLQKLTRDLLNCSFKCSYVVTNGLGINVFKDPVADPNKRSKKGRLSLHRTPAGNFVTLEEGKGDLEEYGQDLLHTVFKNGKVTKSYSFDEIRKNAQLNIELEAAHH
T2 sequence (P40337 whole entry): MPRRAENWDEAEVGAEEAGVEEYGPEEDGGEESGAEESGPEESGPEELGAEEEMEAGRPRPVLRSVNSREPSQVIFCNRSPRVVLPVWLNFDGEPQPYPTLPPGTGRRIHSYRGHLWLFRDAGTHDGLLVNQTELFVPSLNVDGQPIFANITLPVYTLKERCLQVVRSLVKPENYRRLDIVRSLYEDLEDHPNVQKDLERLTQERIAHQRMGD
Chain of von Hippel-Lindau disease tumor suppressor/Nicotinamide phosphoribosyltransferase (Mus musculus, UniProt Q99KQ4+P40338) (Q99KQ4 whole entry): as the sequence (Q99KQ4 whole entry, looked up) above
Chain of von Hippel-Lindau disease tumor suppressor/Nicotinamide phosphoribosyltransferase (Mus musculus, UniProt Q99KQ4+P40338) (P40338 whole entry): as the sequence (P40338 whole entry, looked up) above
Chain of Nicotinamide phosphoribosyltransferase (Homo sapiens) (P43490 whole entry, looked up): as the sequence (P43490 whole entry) above
Description for MIA PaCa-2: Cytotoxicity against human MIA PaCa-2 cells assessed as inhibition of cell growth incubated for 72 hrs by MTT assay
Description for SK-OV-3: Cytotoxicity against human SK-OV-3 cells assessed as inhibition of cell growth incubated for 72 hrs by MTT assay

For the molecule `O=C(/C=C/c1cccnc1)NCCCCC1CCN(C(=O)c2ccccc2)CC1` [DAPORINAD], the IC50 with SK-OV-3 is 6 nM; in the data set with CT26 [3], 39 nM. For the same molecule, the Activity entry in [1] is given as “Non-Toxic”; in [4], “Toxic”; in data set [5], “Toxic”. Moreover, the “fold change (FC)” value in [2] was 1.04.
For `Cc1ncsc1-c1ccc([C@H](C)NC(=O)[C@@H]2C[C@@H](O)CN2C(=O)[C@@H](NC(=O)COCCOCCOCCOCCNC(=O)c2ccc(C(=O)N3CCC(CCCCNC(=O)/C=C/c4cccnc4)CC3)cc2)C(C)(C)C)cc1`, in data set [6], the inhibition result is “Active”. For the same molecule, in [7], the outcome was Active. The results for the IC50 in the data set with SK-OV-3, in the data set on MIA PaCa-2 and in the data set on CT26 [3] were 890 nM, 4 nM and 23100 nM, respectively. For the same molecule, the DC50 in data set [8] came out at 25 nM; in [10] it was 920 nM; in data set [11], 6.4 nM. In [9], the Activity entry was “Dose-Dependent Effect”.
Regarding `Cc1ncsc1-c1ccc([C@@H](C)NC(=O)[C@H]2C[C@H](O)CN2C(=O)[C@H](NC(=O)COCCOCCOCCNC(=O)c2ccc(C(=O)N3CCC(CCCCNC(=O)/C=C/c4cccnc4)CC3)cc2)C(C)(C)C)cc1`, the Activity result is “Toxic” in data set [12]; “Non-Toxic” in data set [16]; “Dose-Dependent Effect” in data set [18]; “Non-Toxic” in data set [1]; “Dose-Dependent Effect” in [22]; “Dose-Dependent Effect” in [9]. In addition, the Activity entry in data set [5] is “Non-Toxic”. For the same molecule, in [13], the Vd/F worked out at 0.483 L/kg. Also, the AUC(0-t) at 24 h in [14] worked out at 919 ng·h/mL. Further, the Tmax in data set [15] was determined as 1 h. The molecule also had a half-life in data set [17] of 22 h. Also, the outcome in the data set on CT26 [19], in the data set with CT26 [21], in the data set with CT26 [23] and with CT26 [24] was Active. The results for the IC50 in the data set on SK-OV-3, in the data set with MIA PaCa-2 and with CT26 [3] were 1020 nM, 4 nM and 25800 nM, respectively. This molecule also yielded a Cmax in data set [20] of 147 ng/mL. Moreover, the DC50 in data set [10] amounted to 520 nM.

The term IC50 denotes the point on the concentration scale where inhibition reaches its midpoint. Lower therefore signals higher potency. A word on the DC50: it is the concentration giving 50% degradation. By AUC(0-t) is commonly meant exposure summed from dosing to a finite time, without extrapolation to infinity. Low values mean low exposure, high ones high exposure. As usually defined, the Tmax is the time from dosing to the highest level. One may read the half-life as the time in which the quantity being followed falls by half. In general, Cmax refers to the peak of the concentration-time curve.
